Measured values as given in ChEMBL document CHEMBL4811222, “Antitumor Activity of Asperphenin B by Induction of Apoptosis and Regulation of Glyceraldehyde-3-phosphate Dehydrogenase in Human Colorectal Cancer Cells” (J Nat Prod, 2021).
Active and inactive are the calls of the source. The rule behind the calls is not given here.

How the values were obtained:
RKO [1] = test: Induction of cell cycle arrest in human RKO cells assessed as accumulation at S phase at 2.5 uM after 24 hrs by RNase A/propidium iodide staining based flow cytometric analysis (reference value: 13.33 %); assay type: functional
RKO [2] = test: Induction of apoptosis in human RKO cells assessed as total apoptotic cells at 2.5 uM after 48 hrs by Annexin V/PI staining based flow cytometric analysis; assay type: functional
RKO [3] = test: Induction of cell cycle arrest in human RKO cells assessed as accumulation at sub-G1 phase at 2.5 uM after 24 hrs by RNase A/propidium iodide staining based flow cytometric analysis (reference value: 0.89 %); assay type: functional
HCT-116 [4] = test: Antiproliferative activity against human HCT-116 cells assessed as inhibition of cell growth incubated for 72 hrs by SRB assay; assay type: functional, cell-based; settings: HCT-116, 72 h
RKO [5] = test: Induction of cell cycle arrest in human RKO cells assessed as accumulation at S phase at 5 uM after 24 hrs by RNase A/propidium iodide staining based flow cytometric analysis (reference value: 24.20 %); assay type: functional
RKO [6] = test: Induction of cell cycle arrest in human RKO cells assessed as upregulation of phospho-Chk1 expression at 1.25 to 5 uM measured after 24 hrs by Western blot analysis; assay type: functional, cell-based; settings: dose 1.25-5 µM
RKO [7] = test: Induction of cell cycle arrest in human RKO cells assessed as accumulation at G0/G1 phase at 5 uM after 24 hrs by RNase A/propidium iodide staining based flow cytometric analysis (reference value: 51.49 %); assay type: functional
RKO [8] = test: Induction of cell cycle arrest in human RKO cells assessed as accumulation at sub-G1 phase at 2.5 uM after 24 hrs by RNase A/propidium iodide staining based flow cytometric analysis (reference value: 0.40 %); assay type: functional
RKO [9] = test: Induction of cell cycle arrest in human RKO cells assessed as accumulation at G2/M phase at 2.5 uM after 36 hrs by RNase A/propidium iodide staining based flow cytometric analysis (reference value: 24.63 %); assay type: functional
RKO [10] = test: Induction of cell cycle arrest in human RKO cells assessed as accumulation at sub-G1 phase at 2.5 uM after 48 hrs by RNase A/propidium iodide staining based flow cytometric analysis (reference value: 0.89 %); assay type: functional
CCD-18Co = test: Antiproliferative activity against human CCD-18Co cells assessed as inhibition of cell growth incubated for 72 hrs by SRB assay; assay type: cell-based
HCT-116 [11] = test: Downregulation of Snail expression in […] at 3 to 6 uM after 24 hrs by Western blotting analysis; assay type: functional, cell-based; settings: dose 3-6 µM
RKO [12] = test: Induction of cell cycle arrest in human RKO cells assessed as accumulation at sub-G1 phase at 1.25 uM after 24 hrs by RNase A/propidium iodide staining based flow cytometric analysis (reference value: 0.40 %); assay type: functional
RKO [13] = test: Induction of apoptosis in human RKO cells assessed as total apoptotic cells at 10 uM after 48 hrs by Annexin V/PI staining based flow cytometric analysis; assay type: functional
RKO [14] = test: Induction of cell cycle arrest in human RKO cells assessed as accumulation at sub-G1 phase at 2.5 uM after 36 hrs by RNase A/propidium iodide staining based flow cytometric analysis (reference value: 0.89 %); assay type: functional
HCT-116 [15] = test: Antiinvasive activity against human HCT116 cells implanted in nude mouse assessed as inhibition of liver cells invasion after 24 hrs by transwell assay; assay type: functional, cell-based; settings: dose 3-6 µM
RKO [16] = test: Induction of apoptosis in human RKO cells assessed as modulation of cleaved caspase 9 expression level after 48 hrs by Western blotting analysis; assay type: functional, cell-based; settings: dose 2.5-10 µM
RKO [17] = test: Antiproliferative activity against human RKO cells assessed as inhibition of cell growth incubated for 72 hrs by SRB assay; assay type: functional, cell-based
RKO [18] = test: Induction of cell cycle arrest in human RKO cells assessed as upregulation of cyclin B1 expression measured after 24 hrs by Western blot analysis; assay type: functional, cell-based; settings: dose 1.25-5 µM
RKO [19] = test: Induction of cell cycle arrest in human RKO cells assessed as accumulation at G0/G1 phase at 2.5 uM after 48 hrs by RNase A/propidium iodide staining based flow cytometric analysis (reference value: 60.58 %); assay type: functional
RKO [20] = test: Induction of cell cycle arrest in human RKO cells assessed as accumulation at G2/M phase at 1.25 uM after 24 hrs by RNase A/propidium iodide staining based flow cytometric analysis (reference value: 24.38 %); assay type: functional
[21] = molecular target: Glyceraldehyde-3-phosphate dehydrogenase (Homo sapiens) (UniProt P04406); test: Inhibition of GAPDH activity (unknown origin) after 1 hr; settings: dose 0.01-10 µM
HCT-116 [22] = test: Downregulation of N-Cadherin expression in […] at 3 to 6 uM after 24 hrs by Western blotting analysis; assay type: functional, cell-based; settings: dose 3-6 µM
RKO [23] = test: Induction of cell cycle arrest in human RKO cells assessed as accumulation at G0/G1 phase at 2.5 uM after 12 hrs by RNase A/propidium iodide staining based flow cytometric analysis (reference value: 60.58 %); assay type: functional
RKO [24] = test: Induction of cell cycle arrest in human RKO cells assessed as accumulation at G2/M phase at 2.5 uM after 24 hrs by RNase A/propidium iodide staining based flow cytometric analysis (reference value: 24.38 %); assay type: functional
RKO [25] = test: Induction of apoptosis in human RKO cells assessed as increase in cleaved caspase 9 expression at 2.5 uM measured upto 48 hrs by Western blotting analysis; assay type: functional, cell-based; settings: time hrs <=48
RKO [26] = test: Antiproliferative activity against human RKO cells over expressing GAPDH at 1 to 8 uM after 72 hrs by SRB assay; assay type: functional, cell-based; settings: dose 1-8 µM
RKO [27] = test: Induction of cell cycle arrest in human RKO cells assessed as accumulation at S phase at 2.5 uM after 36 hrs by RNase A/propidium iodide staining based flow cytometric analysis (reference value: 13.33 %); assay type: functional
RKO [28] = test: Induction of apoptosis in human RKO cells assessed as modulation of cleaved caspase 3 expression level after 48 hrs by Western blotting analysis; assay type: functional, cell-based; settings: dose 2.5-10 µM
RKO [29] = test: Antitumor activity against human RKO cells implanted in BALB/c nude mouse assessed as inhibition of tumor growth at 4 mg/kg, ip administered three times per week for 21 days and measured every 3 to 4 days by electronic caliper method; assay type: functional; settings: 504 h, time 21 day, read-out: TGI
RKO [30] = test: Induction of apoptosis in human RKO cells assessed as modulation of survivin expression level after 48 hrs by Western blotting analysis; assay type: functional, cell-based; settings: dose 2.5-10 µM
RKO [31] = test: Induction of apoptosis in human RKO cells assessed as total apoptotic cells at 1.25 uM after 48 hrs by Annexin V/PI staining based flow cytometric analysis; assay type: functional
RKO [32] = test: Induction of apoptosis in human RKO cells assessed as modulation of p53 expression level after 48 hrs by Western blotting analysis; assay type: functional, cell-based; settings: dose 2.5-10 µM

Sequence of Glyceraldehyde-3-phosphate dehydrogenase (Homo sapiens) (P04406 2-335 limits assumed): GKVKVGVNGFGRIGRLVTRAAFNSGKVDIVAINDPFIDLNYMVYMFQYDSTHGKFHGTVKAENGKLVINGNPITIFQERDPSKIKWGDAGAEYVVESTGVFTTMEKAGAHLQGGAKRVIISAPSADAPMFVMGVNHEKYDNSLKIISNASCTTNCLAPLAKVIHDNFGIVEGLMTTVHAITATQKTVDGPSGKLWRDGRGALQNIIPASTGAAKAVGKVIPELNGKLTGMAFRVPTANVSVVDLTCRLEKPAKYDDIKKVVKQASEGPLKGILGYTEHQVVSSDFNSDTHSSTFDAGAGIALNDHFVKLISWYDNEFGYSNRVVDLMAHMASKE

**Q.** For `CCCCCCCCC[C@@H](O)CC(=O)N[C@@H](CC(N)=O)C(=O)N[C@@H](CCC(N)=O)C(=O)N[C@H](CC(=O)c1cc(C)cc(O)c1C(=O)c1c(O)cccc1O)CC(C)C`, which Activity (RKO [1]) is on record?
**A.** The Activity was 16.64%.

**Q.** What about the Activity (RKO [2]) of the same molecule?
**A.** The Activity was 15.14%.

**Q.** What about the Activity (RKO [3]) of the same molecule?
**A.** Its Activity is 1.22%.

**Q.** What about the IC50 (HCT-116 [4]) of the same molecule?
**A.** The IC50 was 3.12 µM.

**Q.** And the Activity (RKO [5])?
**A.** Its Activity is 22.13%.

**Q.** What about the Activity (RKO [6]) of the same molecule?
**A.** The Activity was “Active”.

**Q.** What about the Activity (RKO [7]) of the same molecule?
**A.** Its Activity is 25.55%.

**Q.** What about the Activity (RKO [8]) of the same molecule?
**A.** The Activity was 0.56%.

**Q.** And the Activity (RKO [9])?
**A.** The Activity was 63.62%.

**Q.** And the Activity (RKO [10])?
**A.** The Activity was 17.94%.

**Q.** And the IC50 (CCD-18Co)?
**A.** Its IC50 is 39.1 µM.

**Q.** And the Activity (HCT-116 [11])?
**A.** Its Activity is “Active”.

**Q.** And the Activity (RKO [12])?
**A.** Its Activity is 0.41%.

**Q.** And the Activity (RKO [13])?
**A.** The Activity was 51.04%.

**Q.** What about the Activity (RKO [14]) of the same molecule?
**A.** The Activity was 3.74%.

**Q.** What about the inhibition (HCT-116 [15]) of the same molecule?
**A.** The inhibition was “Dose-Dependent Effect”.

**Q.** And the Activity (RKO [16])?
**A.** Its Activity is “Dose-Dependent Effect”.

**Q.** And the Activity (RKO [17])?
**A.** Its Activity is “Dose-Dependent Effect”.

**Q.** And the IC50 (RKO [17])?
**A.** Its IC50 is 0.93 µM.

**Q.** And the Activity (RKO [18])?
**A.** Its Activity is “Dose-Dependent Effect”.

**Q.** And the Activity (RKO [19])?
**A.** The Activity was 30.27%.

**Q.** What about the Activity (RKO [20]) of the same molecule?
**A.** Its Activity is 29.42%.

**Q.** What about the inhibition [21] of the same molecule?
**A.** The inhibition was “Dose-Dependent Effect”.

**Q.** What about the Activity (HCT-116 [22]) of the same molecule?
**A.** The Activity was “Active”.

**Q.** What about the Activity (RKO [23]) of the same molecule?
**A.** Its Activity is 54.66%.

**Q.** And the Activity (RKO [24])?
**A.** The Activity was 44.01%.

**Q.** And the Activity (RKO [25])?
**A.** The Activity was “Active”.

**Q.** And the Activity (RKO [26])?
**A.** Its Activity is “Active”.

**Q.** And the Activity (RKO [27])?
**A.** Its Activity is 10.45%.

**Q.** What about the Activity (RKO [28]) of the same molecule?
**A.** The Activity was “Dose-Dependent Effect”.

**Q.** And the inhibition in vivo at 4 mg/kg (RKO [29])?
**A.** Its inhibition in vivo at 4 mg/kg is 32.8%.

**Q.** What about the Activity (RKO [30]) of the same molecule?
**A.** The Activity was “Dose-Dependent Effect”.

**Q.** And the Activity (RKO [31])?
**A.** The Activity was 7.85%.

**Q.** And the Activity (RKO [32])?
**A.** The Activity was “Dose-Dependent Effect”.
